The record followed here is patent US20100298434A1, “NEUROPROTECTION AND PREVENTION OF DOPAMINERGIC CELL DEATH BY TARGETING NUR77 TRANSLOCATION” (priority 2009, published 2010).

In data set [1] the test system is Nur77. In words: Nur77 subcellular distribution (nuclei-cytoplasmic fractioning, Western blot) in PC12 cells. It is filed as cell-based, rat. Conditions: 6-OHDA 30 μM. Here is the method:
(§1) PC12 cells were obtained from ATCC CRL 1721 (VA, USA) and were grown in phenol red-free RPMI 1640 medium supplemented with 5% fetal calf serum (FCS), 10% horse serum and gentamicin (50 μg/ml). They were cultured on Primaria 6-well plates (BD Falcon, Ontario, Canada) for RT-PCR experiments and immunoblotting; on Primaria 96-wells plates for LDH cytoxicity experiments and finally on poly-L-lysine-coated circular glass coverslips for immunocytofluorescence assays. Cells were fed fresh medium every 3 days and maintained at 37° C. in a humidified 5% CO2 atmosphere. […] Control conditions were without toxin. […] For the present study, kinetic time periods were: 0 h, 3 h, 6 h, 9 h, 12 h and 24 h. After each experiment, culture medium was harvested for cytotoxicity detection and cells were collected for RT-PCR and ICF/Fractioning (Gelinas & Martinoli 2002; Gagne et al. 2003; Gelinas et al. 2004; Chiasson et al. 2006).
PC12 cells were grown and treated in 6-wells plates. We used a nuclear extraction kit (Active Motif, Carlsbad, Calif.) to separate cytoplasmic protein content from nuclear protein content. Briefly, cells were washed in wells with a mixture of PBS and phosphatase inhibitors, and then harvested in centrifuge tubes. Hypotonic buffer swelled cytoplasmic membrane, which an afterward mild detergent ruptured.
Centrifugation at 14,000×g pelleted the intact nuclei, and soluble material was preserved as the cytoplasmic fraction. Nuclei were the lysed with the provided lysis buffer. Protein dosage was performed with a bicinchoninic acid (BCA)-based SDS-compatible Protein Assay Kit (Pierce, Rockfort, Ill.) on each fraction of each sample.
Equal amounts of nuclei or cytoplasmic protein fractions were loaded onto a 10% polyacrylamide-SDS gel. After electrophoretic separation (180 volts, 45 min.) the polyacrylamide gels were transferred onto […] (PVDF) membranes (0.22 μm pore size, Bio-Rad) at 50 V for 2 h. The membranes were blocked with 5% non-fat powder milk for 1 h. […] Quantitative analysis was performed with the Fluor Chem SP software.
On the technique in general: In western blotting, separated proteins are transferred to a membrane and probed.

The subject of data set [2] is PC12 cells. In words: LDH cytotoxicity in PC12 cells. It is filed as cell-based. Particulars: PC12 cells. The method, then: They were cultured on Primaria 6-well plates (BD Falcon, Ontario, Canada) for RT-PCR experiments and immunoblotting; on Primaria 96-wells plates for LDH cytoxicity experiments and finally on poly-L-lysine-coated circular glass coverslips for immunocytofluorescence assays. Cells were fed fresh medium every 3 days and maintained at 37° C. in a humidified 5% CO2 atmosphere. […] Control conditions were without toxin.
Briefly, media were collected and centrifuged at 800×g at 4° C. for 2 min. The cell-free supernatant (100 μl) was then used to determine LDH activity by measuring the absorbance at a wavelength of 490 nm (A490) on a microplate reader (Multiscan Ascent Microplate reader, Thermolab System, Franklin Mass.) according to the working procedures of Roche's protocol. Total cellular LDH was determined by lysing cells with 1% Triton X-100.

For data set [3], the system named is substantia nigra neurons. In words: 6-hydroxydopamine lesions in rats, Fluoro-Jade B staining of degenerating neurons. Conditions: intracerebral 6-OHDA. It is filed as in vivo. Here is the method: (§2) Fifteen male Sprague—Dawley albino rats (Charles River, Montreal, Canada) weighing 250-275 g at the beginning of the experiment were used in this study. They were housed two per cage in a temperature-controlled environment maintained under a 12-h light/dark cycle with ad libitum access to food and water. Handling of the rats was performed in accordance with the Canadian Guide for the Care and Use of Laboratory animals and all procedures were approved by the Institutional Animal Care Committee of Laval University. All efforts were made to minimize the number of animals used and their suffering. Rats were anaesthetized in an induction chamber with 4% isoflurane in 95% O2/5% CO2 before being transferred to a stereotaxic frame and maintained at 1.5-3% isoflurane. A sagittal cut exposed bregma and a hole was drilled.
The brain sections were mounted on gelatin-coated slides (Brain Research Laboratories, Newton, Mass.) and air-dried overnight. They were dehydrated in ascending grades of ethanol, hydrated in descending grades of ethanol and finally rinsed in milliQ water. Afterwards, the sections were dipped in a 0.06% potassium permanganate solution bath for 10 min and washed in milliQ water. […] Degenerating neurons and fibers appeared green and nuclei emerged blue in fluorescence.

The subject of data set [4] is PC12 cells. In words: TUNEL/DAPI apoptosis in PC12 cells. It is filed as cell-based, rat. Conditions: 6-OHDA, at 12 and 24 h. The method, then:
as §1
PC12 cells were grown and treated on circular glass coverslips, then fixed in 4% paraformaldehyde for 1 hour at 4° C. […] Images were acquired with an Olympus IX-70 inverted microscope with a high-pressure mercury burner and necessary filter cubes (Olympus U-MNUV, U-MNIBA and U-MWIG), and were analyzed with Bio-Rad's QuantityOne software. […]

Data set [5] concerns Nur77 mRNA. In words: 6-hydroxydopamine lesions in rats, Nur77 mRNA in situ hybridization in substantia nigra. It counts as in vivo. Particulars: intracerebral 6-OHDA 12 μg/3 μl. The method, then:
as §2
Cryostat-cut brain sections (12 μm) were mounted on Superfrost slides (Fisher Scientific, Toronto, ON, Canada) and stored at −80° C. Specific [^35S]UTP-labeled complementary.
RNA (cRNA) probes were used and preparation of the Nur77 probe was performed as described previously (Beaudry et al., 2000). The antisense cRNA probe for Nur77 stems from a 2.4-kb EcoRI fragment of a full-length rat Nur77 cDNA subcloned into pBluescript SK-1 and linearized with BamHI. […]

For `NCCc1cc(O)c(O)cc1O` [6-OHDA, 6-hydroxydopamine], the “start of Nur77 upregulation and translocation from the nucleus to the cytosol” value in data set [1] is recorded as 9 h. The “start of significant rise of cellular death (LDH activity)” value in data set [2] (10 μM 6-OHDA) was found to be 12 h. For the same molecule, in data set [2] (6-OHDA 30 μM, after 24 h), the cell death is given as no more than 70%. In data set [3], the “time at which Fluoro-Jade staining is also observed” value is reported as 3 h and the “time of maximal Fluoro-Jade staining” value is listed as 48 h. In data set [4], the “cells showing signs of apoptosis (co-localization of DAPI and TUNEL)” value is listed as “more than 90%”. The “earliest time of Nur77 mRNA induction in midbrain dopaminergic neurons” value in data set [5] was determined as 3 h.
